Experimental data as given in patent publication US20110283416A1, “METHODS FOR PLANT FIBER CHARACTERIZATION AND IDENTIFICATION” (LE CENTRE NATIONAL DE LA RECHERCHE SCIENTIFIQUE, priority 2008, published 2011).
Like-named read-outs stand apart in the source and are kept apart here.

Tests used:
CYP77A4 [1] = biological target: T1, CYP77A4 (Arabidopsis thaliana, UniProt Q9LZ31); settings: for amount of conversion of fatty acid / conversion as substrate of CYP77A4 (in words): 100 μM fatty acid, 10 pmole CYP77A4, 27° C., 15 minutes (FIG. 4); for epoxide product formed by CYP77A4 (GC-MS identification): 100 μM substrate, 15-20 min
T1 sequence (Q9LZ31 1-512): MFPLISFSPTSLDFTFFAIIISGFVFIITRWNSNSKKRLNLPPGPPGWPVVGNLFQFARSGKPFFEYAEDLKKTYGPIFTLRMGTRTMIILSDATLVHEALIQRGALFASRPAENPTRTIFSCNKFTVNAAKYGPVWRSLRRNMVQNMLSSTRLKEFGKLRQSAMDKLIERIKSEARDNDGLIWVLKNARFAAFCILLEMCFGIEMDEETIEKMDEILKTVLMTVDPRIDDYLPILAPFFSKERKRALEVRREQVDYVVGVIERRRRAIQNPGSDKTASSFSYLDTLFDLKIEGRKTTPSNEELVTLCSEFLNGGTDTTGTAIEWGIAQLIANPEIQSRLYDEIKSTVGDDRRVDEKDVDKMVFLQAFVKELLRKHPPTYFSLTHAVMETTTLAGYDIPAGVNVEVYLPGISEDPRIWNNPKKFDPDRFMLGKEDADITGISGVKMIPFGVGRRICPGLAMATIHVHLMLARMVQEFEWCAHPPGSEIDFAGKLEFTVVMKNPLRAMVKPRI

CYP77A4 [2] = biological target: T1, CYP77A4; assay type: biochemical; settings: 4.5 pmoles CYP77A4, 5 min, calculated with Enzyme Kinetics (Sigma Plot); for Km: read-out: Km for metabolism by CYP77A4
CYP77A4 expression [3] = settings: in vivo
CYP77A4 expression [4] = experiment: Induction of CYP77A4 expression by external factors, quantitative PCR on entire plantlets; settings: after 5 hours; ethanol as control; qPCR (FIG. 3)
[5] = GC-MS analysis of metabolite fraction
[6] = 27° C., 10 pmole CYP77A4, NADPH
[7] = 100 μM, 15 minutes, 27° C., 10 pmole CYP77A4, NADPH

SMILES | amount of conversion of fatty acid (CYP77A4 [1]) | conversion as substrate of CYP77A4 (in words) (CYP77A4 [1]) | Vmax for metabolism by CYP77A4 (CYP77A4 [2]) [nmol·min^−1·nmol^−1 P450] | Km (CYP77A4 [2]) [µM] | epoxide product formed by CYP77A4 (GC-MS identification) (CYP77A4 [1]; [6]) | further results
CCCCCCCCCCCC(=O)O [C12:0, lauric acid] | about 35% | optimal substrate | – | – | – | share of omega-1 hydroxylated metabolite (CYP77A4 [1]; [5]): 53%; share of omega-2 hydroxylated metabolite (CYP77A4 [1]; [5]): 15.2%; share of omega-3 hydroxylated metabolite (CYP77A4 [1]; [5]): 7.6%; share of omega-4 hydroxylated metabolite (CYP77A4 [1]; [5]): 18.2%; share of omega-5 hydroxylated metabolite (CYP77A4 [1]; [5]): 6%
CCCCC/C=C\C/C=C\CCCCCCCC(=O)O [linoleic acid] | – | increasing order of conversion | 13±0.3 | 61 ± 3 | 12-13 epoxy form of linolenic acid | –
CC/C=C\C/C=C\C/C=C\CCCCCCCC(=O)O [linolenic acid] | about 20% | increasing order of conversion | – | 29 ± 4 | – | share of 12-13 mono-epoxy form among mono-epoxy products (CYP77A4 [1]; [7]): 87%; share of each of the other two mono-epoxy structures (CYP77A4 [1]; [7]): 6.5%
OC[C@@H](O)[C@@H](O)[C@H](O)[C@H](O)CO [mannitol] | – | – | – | – | – | induction of the expression of CYP77A4 (CYP77A4 expression [3]): ~20 fold; induction of the transcription of CYP77A4 (CYP77A4 expression [3]): 18 fold
CCCCCCCC/C=C\CCCCCCCC(=O)O [oleic acid] | – | increasing order of conversion | 26±5 | – | epoxy form (at position 9, 10) of oleic acid | –
CCC1(c2ccccc2)C(=O)NC(=O)NC1=O [phenobarbital] | – | – | – | – | – | induction of the expression of CYP77A4 (CYP77A4 expression [4]): 12 fold
